Data as given in PMC3040260 (Biochemistry, 2011).
Values joined by “and” are separate entries in the source; they are usually repeats but may differ in a detail not shown here. Identical values can stand only once.

Columns and labels:
PaMTIP [1] = target: T1, PaMTIP (Pseudomonas aeruginosa, UniProt Q9HZK1); format: biochemical
PaMTIP [2] = target: T1, PaMTIP; assay: PaMTIP inhibition assay; format: biochemical
[3] = phosphorolysis, 25 °C, 100 mM Hepes pH 7.4, 100 mM phosphate
[4] = initial phase, 1 nM PaMTIP, 2 mM MTI, 25 °C, pH 7.4
[5] = second binding phase after slow-onset, 1 nM PaMTIP, 2 mM MTI, 25 °C, pH 7.4

T1 sequence (Q9HZK1 whole entry): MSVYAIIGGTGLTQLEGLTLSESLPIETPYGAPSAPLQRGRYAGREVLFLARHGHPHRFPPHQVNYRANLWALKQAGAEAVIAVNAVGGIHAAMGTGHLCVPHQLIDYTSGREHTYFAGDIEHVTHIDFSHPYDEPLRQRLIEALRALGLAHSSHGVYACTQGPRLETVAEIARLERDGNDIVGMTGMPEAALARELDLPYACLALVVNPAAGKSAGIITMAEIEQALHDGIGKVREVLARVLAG

Compound: 5'-methylthioadenosine [MTA]
- kcat (PaMTIP [1]; [3]): < 10^−4 s^−1
- Ki (PaMTIP [2]; competitive inhibitor of MTI, 200 µM MTI): 70000 ± 20000 nM

Compound: 5'-methylthioinosine [MTI]
- slow hydrolysis rate (PaMTIP [1]; hydrolysis to hypoxanthine and 5-methylthioribose): 3.8e-05 s⁻¹
- Km (PaMTIP [1]; [3]): 2.6 ± 0.4 µM
- kcat (PaMTIP [1]; [3]): 4.8 s⁻¹ and 4.8 ± 0.2 s⁻¹

Compound: CSC[C@H]1CN(Cc2c[nH]c3c(=O)[nH]cnc23)C[C@@H]1O [MT-DADMe-ImmH, 5'-methylthio-DADMe-ImmH]
- Ki (PaMTIP [2]; [4]): 0.8 ± 0.1 nM
- Ki (PaMTIP [2]; [5]): 0.34 ± 0.02 nM

Compound: CSC[C@H]1N[C@@H](c2c[nH]c3c(=O)[nH]cnc23)[C@H](O)[C@@H]1O [MT-ImmH, 5'-methylthio-ImmH]
- fold tighter binding than MT-DADMe-ImmH (Ki*) (PaMTIP [2]; PaMTIP): 4 fold
- Ki (PaMTIP [2]; [4]): 0.84 ± 0.05 nM
- Ki (PaMTIP [2]; [5]): 0.076 ± 0.005 nM

Compound: O=c1[nH]cnc2c([C@@H]3N[C@H](CSc4ccccc4)[C@@H](O)[C@H]3O)c[nH]c12 [PhT-ImmH, 5'-phenylthio-ImmH]
- slow-onset inhibition (PaMTIP [2]; PaMTIP): induces slow-onset inhibition
- Ki (PaMTIP [2]; [4]): 0.66 ± 0.09 nM
- Ki (PaMTIP [2]; [5]): 0.035 ± 0.003 nM

Compound: Nc1ncnc2c1ncn2[C@@H]1O[C@H](CO)[C@@H](O)[C@H]1O [adenosine]
- kcat (PaMTIP [1]; [3]): 0.0549 s⁻¹ and 0.0549 ± 0.0005 s⁻¹
- fold decrease of kcat/Km in comparison with MTI (PaMTIP [1]; relative to MTI): 750 fold

Compound: O=c1[nH]cnc2c1ncn2[C@@H]1O[C@H](CO)[C@@H](O)[C@H]1O [inosine]
- kcat (PaMTIP [1]; [3]): 0.57 s⁻¹ and 0.57 ± 0.04 s⁻¹
